# Measurements published in publication PMC10485887, “PET Evaluation of the Novel F-18 Labeled Reversible Radioligand [^18F]GEH200449 for Detection of Monoamine Oxidase-B in the Non-Human Primate Brain” (ACS Chemical Neuroscience, 2023).
# Where two headings read alike, the source gives them in different places.
# Tested on: MAO-B
# Format: in vivo, Macaca fascicularis
# Conditions: for 2-TC parameter estimate K1 / 2-TC parameter estimate VT / 2-TC parameter estimate k2 / 2-TC parameter estimate k3 / 2-TC parameter estimate k4 / VT, 2-TC mean / VT, Logan mean: baseline
# Protocol: At start of PET data acquisition, a sterile physiological phosphate buffer solution (pH = 7.4) of [^18F]GEH200449 (injected radioactivity, 107–167 MBq) was injected as a bolus into a sural vein. Emission data were acquired in list mode for 123 min. Arterial blood was sampled as previously described[28] using an automated blood sampling system (ABSS) during the first 3 min of each PET measurement. Subsequently, arterial blood samples (0.7–2.5 mL) were manually drawn at 7, 15, 30, 60, 90, and 120 min after injection of [^18F]GEH200449. After centrifugation, 0.15–1.0 mL of plasma was pipetted and plasma radioactivity was measured in a well counter. In addition, samples were taken directly from the ABSS at 0.5, 1, 1.5, 2, 2.5, and 3 min for cross-calibration with the well counter and for the determination of the plasma-to-blood ratio.
# Dynamic images were reconstructed as previously described.[30],[31] Regions of interest (ROIs) for the whole brain and selected regions (caudate nucleus, putamen, thalamus, occipital cortex, prefrontal cortex, and cerebellum) were manually delineated on T1-weighted magnetic resonance images (MRIs) acquired as previously described.[21],[27] PET images were coregistered to the MRIs, and time-activity curves were generated by pooling ROIs for each paired anatomical region and applying the pooled ROIs to the coregistered PET images. Delineation of ROIs and image coregistrations were performed using the software PMOD v. 3.6 (PMOD Technologies, Zurich, Switzerland).
# Time curves for regional [^18F]GEH200449 binding at baseline were analyzed by kinetic modeling using 1-TC and 2-TC models,[32] and VT as outcome measures. Akaike information criterion[33] and F statistics were applied to select the preferred model. Regional estimates of VT for [^18F]GEH200449 were also obtained using the Logan linear graphical method[34] with t* fixed at 40 min. The analyses were performed using the kinetic modeling tool in PMOD v. 4.3. Occupancy at [^18F]GEH200449 binding sites was estimated based on regional VT values obtained by the Logan method at baseline and after drug administration according to a graphical procedure described in the literature.[22]
smiles,measurement,setting,value
O=c1ccoc2ccc(OCc3ccc([18F])nc3)cc12 [[^18F]GEH200449],2-TC parameter estimate K1,"NHP #1, CAU",0.70 mL min-1 cm-3
same,2-TC parameter estimate VT,"NHP #1, CAU",14.6 mL cm-3
same,2-TC parameter estimate k2,"NHP #1, CAU",0.09 min⁻¹
same,2-TC parameter estimate k3,"NHP #1, CAU",0.034 min⁻¹
same,2-TC parameter estimate k4,"NHP #1, CAU",0.037 min⁻¹
same,2-TC parameter estimate K1,"NHP #1, CER",0.47 mL min-1 cm-3
same,2-TC parameter estimate VT,"NHP #1, CER",11.1 mL cm-3
same,2-TC parameter estimate k2,"NHP #1, CER",0.07 min⁻¹
same,2-TC parameter estimate k3,"NHP #1, CER",0.021 min⁻¹
same,2-TC parameter estimate k4,"NHP #1, CER",0.038 min⁻¹
same,2-TC parameter estimate K1,"NHP #1, OC",0.49 mL min-1 cm-3
same,2-TC parameter estimate VT,"NHP #1, OC",10.8 mL cm-3
same,2-TC parameter estimate k2,"NHP #1, OC",0.07 min⁻¹
same,2-TC parameter estimate k3,"NHP #1, OC",0.016 min⁻¹
same,2-TC parameter estimate k4,"NHP #1, OC",0.024 min⁻¹
same,2-TC parameter estimate K1,"NHP #1, PFC",0.57 mL min-1 cm-3
same,2-TC parameter estimate VT,"NHP #1, PFC",11.0 mL cm-3
same,2-TC parameter estimate k2,"NHP #1, PFC",0.09 min⁻¹
same,2-TC parameter estimate k3,"NHP #1, PFC",0.028 min⁻¹
same,2-TC parameter estimate k4,"NHP #1, PFC",0.037 min⁻¹
same,2-TC parameter estimate K1,"NHP #1, PUT",0.71 mL min-1 cm-3
same,2-TC parameter estimate VT,"NHP #1, PUT",14.1 mL cm-3
same,2-TC parameter estimate k2,"NHP #1, PUT",0.09 min⁻¹
same,2-TC parameter estimate k3,"NHP #1, PUT",0.025 min⁻¹
same,2-TC parameter estimate k4,"NHP #1, PUT",0.029 min⁻¹
same,2-TC parameter estimate K1,"NHP #1, THA",0.59 mL min-1 cm-3
same,2-TC parameter estimate VT,"NHP #1, THA",15.0 mL cm-3
same,2-TC parameter estimate k2,"NHP #1, THA",0.06 min⁻¹
same,2-TC parameter estimate k3,"NHP #1, THA",0.008 min⁻¹
same,2-TC parameter estimate k4,"NHP #1, THA",0.016 min⁻¹
same,2-TC parameter estimate K1,"NHP #1, WB",0.51 mL min-1 cm-3
same,2-TC parameter estimate VT,"NHP #1, WB",10.9 mL cm-3
same,2-TC parameter estimate k2,"NHP #1, WB",0.09 min⁻¹
same,2-TC parameter estimate k3,"NHP #1, WB",0.025 min⁻¹
same,2-TC parameter estimate k4,"NHP #1, WB",0.031 min⁻¹
same,2-TC parameter estimate K1,"NHP #3, CAU",0.65 mL min-1 cm-3
same,2-TC parameter estimate VT,"NHP #3, CAU",19.2 mL cm-3
same,2-TC parameter estimate k2,"NHP #3, CAU",0.04 min⁻¹
same,2-TC parameter estimate k3,"NHP #3, CAU",0.006 min⁻¹
same,2-TC parameter estimate k4,"NHP #3, CAU",0.029 min⁻¹
same,2-TC parameter estimate K1,"NHP #3, CER",0.44 mL min-1 cm-3
same,2-TC parameter estimate VT,"NHP #3, CER",13.9 mL cm-3
same,2-TC parameter estimate k2,"NHP #3, CER",0.04 min⁻¹
same,2-TC parameter estimate k3,"NHP #3, CER",0.005 min⁻¹
same,2-TC parameter estimate k4,"NHP #3, CER",0.016 min⁻¹
same,2-TC parameter estimate K1,"NHP #3, OC",0.38 mL min-1 cm-3
same,2-TC parameter estimate VT,"NHP #3, OC",11.2 mL cm-3
same,2-TC parameter estimate k2,"NHP #3, OC",0.04 min⁻¹
same,2-TC parameter estimate k3,"NHP #3, OC",0.003 min⁻¹
same,2-TC parameter estimate k4,"NHP #3, OC",0.012 min⁻¹
same,2-TC parameter estimate K1,"NHP #3, PFC",0.49 mL min-1 cm-3
same,2-TC parameter estimate VT,"NHP #3, PFC",13.5 mL cm-3
same,2-TC parameter estimate k2,"NHP #3, PFC",0.05 min⁻¹
same,2-TC parameter estimate k3,"NHP #3, PFC",0.006 min⁻¹
same,2-TC parameter estimate k4,"NHP #3, PFC",0.017 min⁻¹
same,2-TC parameter estimate K1,"NHP #3, PUT",0.70 mL min-1 cm-3
same,2-TC parameter estimate VT,"NHP #3, PUT",16.7 mL cm-3
same,2-TC parameter estimate k2,"NHP #3, PUT",0.05 min⁻¹
same,2-TC parameter estimate k3,"NHP #3, PUT",0.007 min⁻¹
same,2-TC parameter estimate k4,"NHP #3, PUT",0.029 min⁻¹
same,2-TC parameter estimate K1,"NHP #3, THA",0.58 mL min-1 cm-3
same,2-TC parameter estimate VT,"NHP #3, THA",18.5 mL cm-3
same,2-TC parameter estimate k2,"NHP #3, THA",0.04 min⁻¹
same,2-TC parameter estimate k3,"NHP #3, THA",0.007 min⁻¹
same,2-TC parameter estimate k4,"NHP #3, THA",0.023 min⁻¹
same,2-TC parameter estimate K1,"NHP #3, WB",0.48 mL min-1 cm-3
same,2-TC parameter estimate VT,"NHP #3, WB",12.6 mL cm-3
same,2-TC parameter estimate k2,"NHP #3, WB",0.05 min⁻¹
same,2-TC parameter estimate k3,"NHP #3, WB",0.010 min⁻¹
same,2-TC parameter estimate k4,"NHP #3, WB",0.029 min⁻¹
same,2-TC parameter estimate K1,"NHP #4, CAU",0.50 mL min-1 cm-3
same,2-TC parameter estimate VT,"NHP #4, CAU",19.9 mL cm-3
same,2-TC parameter estimate k2,"NHP #4, CAU",0.05 min⁻¹
same,2-TC parameter estimate k3,"NHP #4, CAU",1.087 min⁻¹
same,2-TC parameter estimate k4,"NHP #4, CAU",1.229 min⁻¹
same,2-TC parameter estimate K1,"NHP #4, CER",0.32 mL min-1 cm-3
same,2-TC parameter estimate k2,"NHP #4, CER",0.03 min⁻¹
same,2-TC parameter estimate k3,"NHP #4, CER",0.001 min⁻¹
same,2-TC parameter estimate k4,"NHP #4, CER",0.000 min⁻¹
same,2-TC parameter estimate K1,"NHP #4, OC",0.31 mL min-1 cm-3
same,2-TC parameter estimate k2,"NHP #4, OC",0.03 min⁻¹
same,2-TC parameter estimate k3,"NHP #4, OC",0.001 min⁻¹
same,2-TC parameter estimate k4,"NHP #4, OC",0.000 min⁻¹
same,2-TC parameter estimate K1,"NHP #4, PFC",0.37 mL min-1 cm-3
same,2-TC parameter estimate VT,"NHP #4, PFC",13.9 mL cm-3
same,2-TC parameter estimate k2,"NHP #4, PFC",0.03 min⁻¹
same,2-TC parameter estimate k3,"NHP #4, PFC",0.002 min⁻¹
same,2-TC parameter estimate k4,"NHP #4, PFC",0.013 min⁻¹
same,2-TC parameter estimate K1,"NHP #4, PUT",0.57 mL min-1 cm-3
same,2-TC parameter estimate VT,"NHP #4, PUT",17.2 mL cm-3
same,2-TC parameter estimate k2,"NHP #4, PUT",0.04 min⁻¹
same,2-TC parameter estimate k3,"NHP #4, PUT",0.006 min⁻¹
same,2-TC parameter estimate k4,"NHP #4, PUT",0.034 min⁻¹
same,2-TC parameter estimate K1,"NHP #4, THA",0.53 mL min-1 cm-3
same,2-TC parameter estimate VT,"NHP #4, THA",18.1 mL cm-3
same,2-TC parameter estimate k2,"NHP #4, THA",1.24 min⁻¹
same,2-TC parameter estimate k3,"NHP #4, THA",4.043 min⁻¹
same,2-TC parameter estimate k4,"NHP #4, THA",0.098 min⁻¹
same,2-TC parameter estimate K1,"NHP #4, WB",0.34 mL min-1 cm-3
same,2-TC parameter estimate VT,"NHP #4, WB",13.1 mL cm-3
same,2-TC parameter estimate k2,"NHP #4, WB",0.03 min⁻¹
same,2-TC parameter estimate k3,"NHP #4, WB",0.003 min⁻¹
same,2-TC parameter estimate k4,"NHP #4, WB",0.016 min⁻¹
same,2-TC parameter estimate K1,"NHP #5, CAU",0.93 mL min-1 cm-3
same,2-TC parameter estimate VT,"NHP #5, CAU",34.1 mL cm-3
same,2-TC parameter estimate k2,"NHP #5, CAU",0.05 min⁻¹
same,2-TC parameter estimate k3,"NHP #5, CAU",0.004 min⁻¹
same,2-TC parameter estimate k4,"NHP #5, CAU",0.004 min⁻¹
same,2-TC parameter estimate K1,"NHP #5, CER",0.51 mL min-1 cm-3
same,2-TC parameter estimate VT,"NHP #5, CER",16.0 mL cm-3
same,2-TC parameter estimate k2,"NHP #5, CER",0.05 min⁻¹
same,2-TC parameter estimate k3,"NHP #5, CER",0.006 min⁻¹
same,2-TC parameter estimate k4,"NHP #5, CER",0.011 min⁻¹
same,2-TC parameter estimate K1,"NHP #5, OC",0.37 mL min-1 cm-3
same,2-TC parameter estimate k2,"NHP #5, OC",0.04 min⁻¹
same,2-TC parameter estimate k3,"NHP #5, OC",0.002 min⁻¹
same,2-TC parameter estimate k4,"NHP #5, OC",0.000 min⁻¹
same,2-TC parameter estimate K1,"NHP #5, PFC",0.61 mL min-1 cm-3
same,2-TC parameter estimate VT,"NHP #5, PFC",20.4 mL cm-3
same,2-TC parameter estimate k2,"NHP #5, PFC",0.05 min⁻¹
same,2-TC parameter estimate k3,"NHP #5, PFC",0.004 min⁻¹
same,2-TC parameter estimate k4,"NHP #5, PFC",0.006 min⁻¹
same,2-TC parameter estimate K1,"NHP #5, PUT",0.86 mL min-1 cm-3
same,2-TC parameter estimate VT,"NHP #5, PUT",21.1 mL cm-3
same,2-TC parameter estimate k2,"NHP #5, PUT",0.06 min⁻¹
same,2-TC parameter estimate k3,"NHP #5, PUT",0.007 min⁻¹
same,2-TC parameter estimate k4,"NHP #5, PUT",0.012 min⁻¹
same,2-TC parameter estimate K1,"NHP #5, THA",0.64 mL min-1 cm-3
same,2-TC parameter estimate VT,"NHP #5, THA",27.7 mL cm-3
same,2-TC parameter estimate k2,"NHP #5, THA",0.04 min⁻¹
same,2-TC parameter estimate k3,"NHP #5, THA",0.004 min⁻¹
same,2-TC parameter estimate k4,"NHP #5, THA",0.005 min⁻¹
same,2-TC parameter estimate K1,"NHP #5, WB",0.50 mL min-1 cm-3
same,2-TC parameter estimate VT,"NHP #5, WB",17.3 mL cm-3
same,2-TC parameter estimate k2,"NHP #5, WB",0.05 min⁻¹
same,2-TC parameter estimate k3,"NHP #5, WB",0.005 min⁻¹
same,2-TC parameter estimate k4,"NHP #5, WB",0.008 min⁻¹
same,pattern of regional radioactivity (binding),baseline PET images and time curves,"high binding in the striatum and thalamus, whereas the binding was lower in the cortex and cerebellum"
same,"VT, 2-TC mean","caudate nucleus, n = 4",22.0 mL cm^–3
same,"VT, Logan mean","caudate nucleus, n = 4",18.9 mL cm^–3
same,"VT, 2-TC mean","cerebellum, n = 3",13.6^** mL cm^–3
same,"VT, Logan mean","cerebellum, n = 4",12.6 mL cm^–3
same,"VT, 2-TC mean","occipital cortex, n = 2",11.0^* mL cm^–3
same,"VT, Logan mean","occipital cortex, n = 4",11.0 mL cm^–3
same,"VT, 2-TC mean","prefrontal cortex, n = 4",14.7 mL cm^–3
same,"VT, Logan mean","prefrontal cortex, n = 4",13.1 mL cm^–3
same,"VT, 2-TC mean","putamen, n = 4",17.3 mL cm^–3
same,"VT, Logan mean","putamen, n = 4",16.5 mL cm^–3
same,"VT, 2-TC mean","thalamus, n = 4",19.8 mL cm^–3
same,"VT, Logan mean","thalamus, n = 4",17.3 mL cm^–3
same,"VT, 2-TC mean","whole brain, n = 4",13.5 mL cm^–3
same,"VT, Logan mean","whole brain, n = 4",12.4 mL cm^–3
